Test results: ChEMBL document CHEMBL5620379, “Discovery, SAR and mechanistic studies of quinazolinone-based acetamide derivatives in experimental visceral leishmaniasis” (Eur J Med Chem, 2023)

Assays:
J774 [1] = assay: Cytotoxicity against mouse J774 cells at 12.5 uM incubated for 72 hrs by MTT assay relative to control; assay type: toxicity, cell-based; conditions: j774, 72 h
J774 [2] = assay: Cytotoxicity against mouse J774 cells at 25 uM incubated for 72 hrs by MTT assay relative to control; assay type: toxicity, cell-based; conditions: j774, 72 h
J774 [3] = assay: Cytotoxicity against mouse J774 cells at 50 uM incubated for 72 hrs by MTT assay relative to control; assay type: toxicity, cell-based; conditions: j774, 72 h
Leishmania donovani [4] = assay: Antileishmanial activity against Leishmania donovani amastigotes infected in J774 macrophage assessed as inhibition of parasite growth incubated for 48 hrs by luciferase assay; assay type: functional, organism-based; conditions: J774, 48 h
J774 [5] = assay: Cytotoxicity against mouse J774 macrophage incubated for 72 hrs by MTT assay; assay type: functional
[6] = Selectivity index, ratio of CC50 for mouse J774 macrophage to IC50 for Leishmania donovani amastigotes infected in J774 macrophage; assay type: toxicity; conditions: J774 macrophages, read-out: Ratio CC50/IC50
Leishmania donovani [7] = assay: Antileishmanial activity against Leishmania donovani promastigotes measured after 48 hrs by MTT assay; assay type: functional, organism-based
Leishmania donovani [8] = assay: Antileishmanial activity against Leishmania donovani promastigotes at 25 uM measured after 48 hrs by MTT assay relative to control; assay type: functional
Leishmania donovani [9] = assay: Antileishmanial activity against Leishmania donovani amastigotes infected in J774 macrophage assessed as inhibition of parasite growth at 25 uM incubated for 48 hrs by luciferase assay relative to control; assay type: functional; set-up: scale not given: the % may be the effect or the level left

CCn1c(-c2ccc(OCC(=O)Nc3ccc(Cl)cc3)cc2)nc2ccccc2c1=O
Activity (J774 [1]): 67.21% | Activity (J774 [2]): 47.53% | Activity (J774 [3]): 32.52%

Cn1c(-c2ccc(OCC(=O)Nc3ccc(C(C)(C)C)cc3)cc2)nc2ccccc2c1=O
Activity (J774 [1]): 59.75% | Activity (J774 [2]): 55.66% | Activity (J774 [3]): 26.84%

Cn1c(-c2ccc(OCC(=O)Nc3ccncc3)cc2)nc2ccccc2c1=O
Activity (J774 [1]): 71.91% | Activity (J774 [2]): 51.89% | Activity (J774 [3]): 40.96%

COc1ccc(NC(=O)COc2cccc(-c3nc4ccccc4c(=O)n3C)c2)cc1
Activity (J774 [1]): 64.08% | Activity (J774 [2]): 52.92% | Activity (J774 [3]): 29.78%

CCc1ccc(NC(=O)COc2ccc(-c3nc4ccccc4c(=O)n3C)cc2)cc1
Activity (J774 [1]): 81.78% | IC50 (Leishmania donovani [4]): 20.1 µM | CC50 (J774 [5]): 38.1 µM | selectivity ratio [6]: 1.89 | IC50 (Leishmania donovani [7]): 15.1 µM | Activity (J774 [2]): 79.14% | Activity (J774 [3]): 33.38%

Cc1ccc(NC(=O)COc2cccc(-c3nc4ccccc4c(=O)n3C)c2)cc1
Activity (J774 [1]): 65.55% | Activity (J774 [2]): 41.69% | Activity (J774 [3]): 31.44%

CC(C)c1ccc(NC(=O)COc2ccc(-c3nc4ccccc4c(=O)n3C)cc2)cc1
Activity (J774 [1]): 69.76% | Activity (J774 [2]): 67.4% | Activity (J774 [3]): 49.31%

Cn1c(-c2ccc(OCC(=O)Nc3cccc4cccnc34)cc2)nc2ccccc2c1=O
Activity (J774 [1]): 82.65% | IC50 (Leishmania donovani [4]): 18.4 µM | CC50 (J774 [5]): 42.7 µM | selectivity ratio [6]: 2.32 | IC50 (Leishmania donovani [7]): 16.1 µM | Activity (J774 [2]): 76.21% | Activity (J774 [3]): 42.14%

CCn1c(-c2ccc(OCC(=O)Nc3ccc(OC)cc3)cc2)nc2ccccc2c1=O
Activity (J774 [1]): 67.45% | Activity (J774 [2]): 62.11% | Activity (J774 [3]): 43.01%

Cn1c(-c2cccc(OCC(=O)Nc3ccc(F)cc3)c2)nc2ccccc2c1=O
Activity (J774 [1]): 66.92% | Activity (J774 [2]): 56.86% | Activity (J774 [3]): 31.32%

Cc1ccc(NC(=O)COc2ccc(-c3nc4ccccc4c(=O)n3C)cc2)cc1
Activity (J774 [1]): 85.59% | IC50 (Leishmania donovani [4]): 24.5 µM | CC50 (J774 [5]): 50.7 µM | selectivity ratio [6]: 2.07 | IC50 (Leishmania donovani [7]): 22.1 µM | Activity (J774 [2]): 81.98% | Activity (J774 [3]): 49.93%

Cn1c(-c2ccc(OCC(=O)Nc3ccccn3)cc2)nc2ccc(Cl)cc2c1=O
Activity (J774 [1]): 65.58% | Activity (J774 [2]): 59.37% | Activity (J774 [3]): 39.88%

CCn1c(-c2ccc(OCC(=O)Nc3ccccn3)cc2)nc2ccccc2c1=O
Activity (J774 [1]): 84.82% | IC50 (Leishmania donovani [4]): 27.2 µM | CC50 (J774 [5]): 39.5 µM | selectivity ratio [6]: 1.45 | IC50 (Leishmania donovani [7]): 23.9 µM | Activity (J774 [2]): 79.09% | Activity (J774 [3]): 38.97%

Cc1ccc(NC(=O)COc2ccc(-c3nc4ccccc4c(=O)n3C)cc2)cc1C
Activity (J774 [1]): 67.4% | Activity (J774 [2]): 46.38% | Activity (J774 [3]): 31.465%

Cn1c(-c2cccc(OCC(=O)Nc3ccc(Cl)cc3)c2)nc2ccccc2c1=O
Activity (J774 [1]): 84.53% | IC50 (Leishmania donovani [4]): 11.9 µM | CC50 (J774 [5]): 54.1 µM | selectivity ratio [6]: 4.54 | IC50 (Leishmania donovani [7]): 9.11 µM | Activity (J774 [2]): 71.35% | Activity (J774 [3]): 55.23%

CCn1c(-c2ccc(OCC(=O)Nc3cccc(C(F)(F)F)c3)cc2)nc2ccccc2c1=O
Activity (J774 [1]): 87.75% | IC50 (Leishmania donovani [4]): 20.9 µM | CC50 (J774 [5]): 45 µM | selectivity ratio [6]: 2.15 | IC50 (Leishmania donovani [7]): 19.8 µM | Activity (J774 [2]): 77.31% | Activity (J774 [3]): 47.72%

COc1ccc(NC(=O)COc2ccc(-c3nc4ccccc4c(=O)n3C)cc2)cc1
Activity (J774 [1]): 83.71% | IC50 (Leishmania donovani [4]): 26.1 µM | CC50 (J774 [5]): 39.2 µM | selectivity ratio [6]: 1.5 | IC50 (Leishmania donovani [7]): 14.3 µM | Activity (J774 [2]): 78.71% | Activity (J774 [3]): 35.93%

CCn1c(-c2ccc(OCC(=O)Nc3ccc(F)cc3)cc2)nc2ccccc2c1=O
Activity (J774 [1]): 59.51% | Activity (J774 [2]): 43.73% | Activity (J774 [3]): 34.39%

Cn1c(-c2ccc(OCC(=O)Nc3cccc(C(F)(F)F)c3)cc2)nc2ccccc2c1=O
Activity (J774 [1]): 86.45% | IC50 (Leishmania donovani [4]): 21.9 µM | CC50 (J774 [5]): 47.7 µM | selectivity ratio [6]: 2.17 | IC50 (Leishmania donovani [7]): 12.3 µM | Activity (J774 [2]): 78.66% | Activity (J774 [3]): 48.49%

Cn1c(-c2ccc(OCC(=O)Nc3ccccc3)cc2)nc2ccccc2c1=O
Activity (J774 [1]): 87.94% | IC50 (Leishmania donovani [4]): 22.6 µM | CC50 (J774 [5]): 43.2 µM | selectivity ratio [6]: 1.91 | IC50 (Leishmania donovani [7]): 17.6 µM | Activity (J774 [2]): 78.47% | Activity (J774 [3]): 42.62%

Cn1c(-c2ccc(OCC(=O)Nc3ccc(F)cc3)cc2)nc2ccccc2c1=O
Activity (J774 [1]): 82.8% | IC50 (Leishmania donovani [4]): 11.5 µM | CC50 (J774 [5]): 41.6 µM | selectivity ratio [6]: 3.62 | IC50 (Leishmania donovani [7]): 8.02 µM | Activity (J774 [2]): 69.62% | Activity (J774 [3]): 38.87%

CCn1c(-c2ccc(OCC(=O)Nc3ccc(C)cc3)cc2)nc2ccccc2c1=O
Activity (J774 [1]): 85.97% | IC50 (Leishmania donovani [4]): 10.1 µM | CC50 (J774 [5]): 40.9 µM | selectivity ratio [6]: 4.03 | IC50 (Leishmania donovani [7]): 8.43 µM | Activity (J774 [2]): 68.99% | Activity (J774 [3]): 37.91%

Cc1ccc(NC(=O)COc2ccc(-c3nc4ccccc4c(=O)n3C)cc2)cc1Cl
Activity (J774 [1]): 68.41% | Activity (J774 [2]): 52.13% | Activity (J774 [3]): 47.78%

Cn1c(-c2cccc(OCC(=O)Nc3cccc(C(F)(F)F)c3)c2)nc2ccccc2c1=O
Activity (J774 [1]): 69.23% | Activity (J774 [2]): 53.5% | Activity (J774 [3]): 36.03%

Cn1c(-c2ccc(OCC(=O)Nc3ccc4c(c3)CCC4)cc2)nc2ccccc2c1=O
Activity (Leishmania donovani [8]): 79.73% | Activity (J774 [1]): 87.89% | IC50 (Leishmania donovani [4]): 6.23 µM | Activity (Leishmania donovani [9]): 78.87% | CC50 (J774 [5]): 31.7 µM | selectivity ratio [6]: 5.09 | IC50 (Leishmania donovani [7]): 8.26 µM | Activity (J774 [2]): 53.88% | Activity (J774 [3]): 36.13%

COc1cc(NC(=O)COc2ccc(-c3nc4ccccc4c(=O)n3C)cc2)cc(OC)c1OC
Activity (J774 [1]): 69.04% | Activity (J774 [2]): 51.67% | Activity (J774 [3]): 39.78%

Cn1c(-c2ccc(OCC(=O)Nc3ccc4c(c3)OCO4)cc2)nc2ccccc2c1=O
Activity (J774 [1]): 85.01% | IC50 (Leishmania donovani [4]): 21.5 µM | CC50 (J774 [5]): 48.5 µM | selectivity ratio [6]: 2.25 | IC50 (Leishmania donovani [7]): 17.5 µM | Activity (J774 [2]): 78.08% | Activity (J774 [3]): 45.89%

Cn1c(-c2ccc(OCC(=O)Nc3ccc(Cl)cc3)cc2)nc2ccccc2c1=O
Activity (J774 [1]): 85.35% | IC50 (Leishmania donovani [4]): 22.1 µM | CC50 (J774 [5]): 61.8 µM | selectivity ratio [6]: 2.78 | IC50 (Leishmania donovani [7]): 16.1 µM | Activity (J774 [2]): 81.59% | Activity (J774 [3]): 58.88%

Cn1c(-c2ccc(OCC(=O)Nc3ccc([N+](=O)[O-])cc3)cc2)nc2ccccc2c1=O
Activity (J774 [1]): 84.05% | IC50 (Leishmania donovani [4]): 22.2 µM | CC50 (J774 [5]): 54.4 µM | selectivity ratio [6]: 2.45 | IC50 (Leishmania donovani [7]): 18.8 µM | Activity (J774 [2]): 80.58% | Activity (J774 [3]): 55.85%

COc1ccc(NC(=O)COc2ccc(-c3nc4ccccc4c(=O)n3C)cc2)cc1OC
Activity (J774 [1]): 83.52% | IC50 (Leishmania donovani [4]): 10.5 µM | CC50 (J774 [5]): 37 µM | selectivity ratio [6]: 3.53 | IC50 (Leishmania donovani [7]): 7.86 µM | Activity (J774 [2]): 67.45% | Activity (J774 [3]): 37.47%

Cn1c(-c2ccc(OCC(=O)Nc3ccccn3)cc2)nc2cc(F)ccc2c1=O
Activity (J774 [1]): 85.3% | IC50 (Leishmania donovani [4]): 9.16 µM | CC50 (J774 [5]): 35.1 µM | selectivity ratio [6]: 3.82 | IC50 (Leishmania donovani [7]): 6.25 µM | Activity (J774 [2]): 58.74% | Activity (J774 [3]): 30.36%
